Active and inactive are the calls of the source.
What was measured:
[1] = biological target: Luciferin 4-monooxygenase (Photinus pyralis, UniProt P08659); assay: firefly luciferase enzyme inhibitors, dose response, biochemical, luminescence (AID 1891)
[2] = Luminescence Cell-Based Dose Confirmation HTS to Identify Inhibitors of Platelet Dense Granule Release. [Related pubchem assays: 1663 (Primary HTS), 1678 (Summary of Project)]; format: functional
[3] = biological target: Induced myeloid leukemia cell differentiation protein Mcl-1 (Homo sapiens, UniProt Q07820); format: functional
[4] = growth suppression of beta-catenin-knockout colon cells, dose response, cell-based, HCT116, human colon tumor (AID 1045); format: functional;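 further: HCT116 colon tumor cells with beta catenin knocked out; cells exposed to compound for 60 hours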
[5] = growth suppression of PTEN-null colon cells, dose response, cell-based, HCT116 PTEN knockout (AID 1047); format: functional;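 further: HCT116 colon tumor cells with PTEN knocked out; cells exposed to compound for 60 hours before readout; potency for loss of cell viability measured by luminescence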
SN12K1 = assay: cells; format: functional; details: Homo sapiens
P388 = assay: cells; format: functional; details: Mus musculus
P388/ADR = assay: cells; format: functional; details: Mus musculus
[6] = NIH-3T3 fibroblast cytotoxicity, dose response, cytotoxicity control, cell-based, fluorescence, Alamar Blue, secondary assay (AID 2327); format: functional;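 further: NIH-3T3 mouse fibroblasts cultured with fluconazole at 8 µg/mL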
[7] = C. albicans growth with fluconazole, confirmation, fluorescence, retest (AID 2467); format: functional, cell-based
[8] = cytotoxicity in HEK-293T cells, dose response, cytotoxicity control for TCR NF-kB inhibitor project, luminescence, T-cell screen hits (AID 489026); format: functional, cell-based;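 further: cells exposed to compound about 14 hours before the viability readout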
[9] = Luminescence Cell-Based Dose Retest to Confirm Inhibitors of Cancer Stem Cells. [Related pubchem assays (depositor defined):AID2717, AID2721]; format: functional; details: Homo sapiens
[10] = biological target: T1, Rac GTPase-activating protein 1 (Homo sapiens, UniProt Q9H0H5); assay: MgcRacGAP GTPase-activating activity inhibitors, confirmation, biochemical, ADP Hunter fluorescence, primary and confirmatory (AID 624330); format: functional
T1 sequence (Q9H0H5 whole entry): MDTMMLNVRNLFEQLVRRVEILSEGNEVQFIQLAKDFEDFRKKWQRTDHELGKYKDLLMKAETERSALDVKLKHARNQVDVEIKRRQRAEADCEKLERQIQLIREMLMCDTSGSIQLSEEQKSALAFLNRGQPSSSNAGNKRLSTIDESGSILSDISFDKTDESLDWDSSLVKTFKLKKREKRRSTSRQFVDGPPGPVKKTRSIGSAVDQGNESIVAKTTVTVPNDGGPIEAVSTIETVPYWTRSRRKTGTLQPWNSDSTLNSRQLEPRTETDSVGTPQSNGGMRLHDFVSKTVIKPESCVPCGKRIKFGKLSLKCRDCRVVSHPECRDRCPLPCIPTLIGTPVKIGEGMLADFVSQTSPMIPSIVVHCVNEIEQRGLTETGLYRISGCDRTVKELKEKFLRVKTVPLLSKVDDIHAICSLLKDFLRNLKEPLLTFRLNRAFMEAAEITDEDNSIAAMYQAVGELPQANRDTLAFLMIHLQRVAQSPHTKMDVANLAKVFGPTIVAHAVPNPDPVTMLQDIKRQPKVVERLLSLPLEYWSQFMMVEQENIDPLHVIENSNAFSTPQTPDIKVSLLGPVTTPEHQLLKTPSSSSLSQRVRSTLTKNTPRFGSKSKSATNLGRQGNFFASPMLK

Large T antigen = Large T antigen (Simian virus 40, UniProt P03070); format: functional, Betapolyomavirus macacae;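 further: Confirmatory-stage PubChem screen for compounds that inhibit SV40 T antigen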
cells = format: functional
Protein skinhead-1 = biological target: T2, Protein skinhead-1 (Caenorhabditis elegans, UniProt P34707); format: functional
T2 sequence (P34707 whole entry): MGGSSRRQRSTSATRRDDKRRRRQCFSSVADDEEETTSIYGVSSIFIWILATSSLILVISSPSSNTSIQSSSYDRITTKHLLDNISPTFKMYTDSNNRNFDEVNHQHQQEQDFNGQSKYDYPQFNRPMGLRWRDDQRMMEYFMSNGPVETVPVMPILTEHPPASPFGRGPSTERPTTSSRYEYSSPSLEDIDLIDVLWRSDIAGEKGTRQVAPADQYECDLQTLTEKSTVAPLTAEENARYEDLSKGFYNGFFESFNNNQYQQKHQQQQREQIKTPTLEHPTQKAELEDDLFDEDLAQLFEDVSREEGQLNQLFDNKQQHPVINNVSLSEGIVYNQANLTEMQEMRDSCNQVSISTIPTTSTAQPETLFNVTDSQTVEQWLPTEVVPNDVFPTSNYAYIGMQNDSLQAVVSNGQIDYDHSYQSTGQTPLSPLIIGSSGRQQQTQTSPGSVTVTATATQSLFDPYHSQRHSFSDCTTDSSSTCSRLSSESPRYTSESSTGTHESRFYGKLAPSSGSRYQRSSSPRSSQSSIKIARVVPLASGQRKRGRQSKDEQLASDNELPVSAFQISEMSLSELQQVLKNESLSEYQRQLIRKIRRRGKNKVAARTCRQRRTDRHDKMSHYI

[11] = Shn3 3'UTR reporter inhibitors, dose response, cell-based, Clone20 osteoblasts, firefly luciferase, cherry-picked (AID 624132); format: functional;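 further: firefly luciferase luminescence from reporter carrying the Shn3 3'UTR in osteoblasts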
[12] = Luminescence Cell-Based Dose Response HTS to Identify Inhibitors of 5'UTR Stem-Loop Driven Prion Protein mRNA Translation in H4 Neuroglioblastoma Cells. [Related pubchem assays: 1827 (Project Summary), 1813 (Primary HTS)]; format: functional
INS1 = assay: beta cell apoptosis inhibitors, cytokine rescue, dose response, luminescence, retest (AID 449756); format: functional, cell-based; details: Rattus norvegicus;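 further: cell death triggered by IL-1 beta plus TNF-alpha plus IFN-gamma mixture; protective hits raise ATP signal compared with cytokine alone wells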
[13] = control 3'UTR Renilla luciferase suppression, dose response, counter-screen for Shn3 inhibitor project, cell-based, Clone20-Shn3RL, cherry-picked (AID 624133); format: functional
[14] = HepG2 cell cytotoxicity, dose response, cytotoxicity control for Shn3 inhibitor project, CellTiter-Glo, cherry-picked (AID 624134); format: functional, cell-based
[15] = cytotoxicity toward NIH3T3 fibroblasts, dose response, counter-screen, cell-based, ATP luminescence, mouse fibroblasts (AID 2010); format: functional;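 further: cells exposed to compound for about 90 hours before reading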
[16] = inhibitors of intracellular T. cruzi replication, confirmation, NIH3T3 host cells, beta-gal luminescence (AID 2044); format: functional, cell-based;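 further: intracellular parasites grown in NIH/3T3 mouse fibroblasts as host cells; luminescent beta-galactosidase reporter signal from transgenic T. cruzi replicating inside host cells; inhibitors lower the luminescence signal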
Cytochrome P450 2C9 = Cytochrome P450 2C9 (Homo sapiens, UniProt P11712)
BJ [17] = assay: cells; format: functional, cell-based, Homo sapiens; details: Homo sapiens, BJ
BJ [18] = assay: cytotoxicity toward BJ-TERT fibroblasts, dose response, cell-based, RAS-independent, luminescence (AID 1933); format: functional, Homo sapiens; details: Homo sapiens, BJ
[19] = cytotoxicity toward DRD oncogenic fibroblasts, dose response, cell-based, non-viral oncogenic, luminescence (AID 1934); format: functional; details: Homo sapiens
BJ [20] = assay: cytotoxicity toward BJ-TERT-LT-ST fibroblasts, dose response, cell-based, RAS-independent, luminescence (AID 1935); format: functional, Homo sapiens; details: Homo sapiens, BJ;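 further: BJ fibroblasts immortalized with TERT plus LT and ST oncogenes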

Large T antigen, sequence (P03070 whole entry): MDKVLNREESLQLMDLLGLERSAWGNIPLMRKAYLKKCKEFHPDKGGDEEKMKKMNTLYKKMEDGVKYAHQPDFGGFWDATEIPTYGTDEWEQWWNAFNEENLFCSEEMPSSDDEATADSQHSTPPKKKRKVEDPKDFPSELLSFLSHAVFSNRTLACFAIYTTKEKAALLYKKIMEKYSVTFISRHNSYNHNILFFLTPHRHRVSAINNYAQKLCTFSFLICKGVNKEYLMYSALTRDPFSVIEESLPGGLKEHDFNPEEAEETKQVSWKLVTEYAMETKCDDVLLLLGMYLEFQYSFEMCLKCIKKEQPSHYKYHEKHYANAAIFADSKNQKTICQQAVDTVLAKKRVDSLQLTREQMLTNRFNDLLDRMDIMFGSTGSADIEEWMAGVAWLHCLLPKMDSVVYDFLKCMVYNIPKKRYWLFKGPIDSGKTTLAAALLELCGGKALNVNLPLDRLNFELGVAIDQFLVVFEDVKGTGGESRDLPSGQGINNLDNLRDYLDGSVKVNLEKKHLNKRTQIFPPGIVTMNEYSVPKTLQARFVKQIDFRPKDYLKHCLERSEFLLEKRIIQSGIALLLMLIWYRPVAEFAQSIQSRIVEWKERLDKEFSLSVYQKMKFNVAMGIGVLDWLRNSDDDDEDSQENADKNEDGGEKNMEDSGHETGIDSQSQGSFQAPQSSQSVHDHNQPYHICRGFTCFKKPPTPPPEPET
Luciferin 4-monooxygenase, sequence (P08659 whole entry): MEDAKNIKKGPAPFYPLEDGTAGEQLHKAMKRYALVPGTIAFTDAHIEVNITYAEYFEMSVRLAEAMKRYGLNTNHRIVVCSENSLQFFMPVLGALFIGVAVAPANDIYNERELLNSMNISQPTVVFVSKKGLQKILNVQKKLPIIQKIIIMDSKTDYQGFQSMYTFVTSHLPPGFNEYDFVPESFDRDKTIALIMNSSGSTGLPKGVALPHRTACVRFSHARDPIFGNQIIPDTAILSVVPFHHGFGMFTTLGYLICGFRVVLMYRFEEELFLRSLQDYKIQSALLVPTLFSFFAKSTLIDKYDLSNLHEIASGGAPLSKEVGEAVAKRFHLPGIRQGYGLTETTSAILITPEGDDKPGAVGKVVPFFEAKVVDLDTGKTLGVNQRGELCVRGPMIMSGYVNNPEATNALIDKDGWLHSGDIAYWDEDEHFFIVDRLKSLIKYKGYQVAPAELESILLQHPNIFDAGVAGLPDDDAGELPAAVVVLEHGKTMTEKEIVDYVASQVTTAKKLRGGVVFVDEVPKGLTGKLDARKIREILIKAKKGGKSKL
Induced myeloid leukemia cell differentiation protein Mcl-1, sequence (Q07820 whole entry): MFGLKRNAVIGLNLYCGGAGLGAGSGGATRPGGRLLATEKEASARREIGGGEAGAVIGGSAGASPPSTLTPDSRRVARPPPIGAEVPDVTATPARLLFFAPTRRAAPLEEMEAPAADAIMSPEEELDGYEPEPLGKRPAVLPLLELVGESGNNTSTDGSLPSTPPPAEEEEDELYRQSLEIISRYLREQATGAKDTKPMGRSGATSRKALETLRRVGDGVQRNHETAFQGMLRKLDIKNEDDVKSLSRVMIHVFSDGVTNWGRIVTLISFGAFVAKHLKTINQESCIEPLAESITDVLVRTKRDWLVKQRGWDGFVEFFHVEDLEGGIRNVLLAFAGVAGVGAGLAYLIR
Cytochrome P450 2C9, sequence (P11712 whole entry): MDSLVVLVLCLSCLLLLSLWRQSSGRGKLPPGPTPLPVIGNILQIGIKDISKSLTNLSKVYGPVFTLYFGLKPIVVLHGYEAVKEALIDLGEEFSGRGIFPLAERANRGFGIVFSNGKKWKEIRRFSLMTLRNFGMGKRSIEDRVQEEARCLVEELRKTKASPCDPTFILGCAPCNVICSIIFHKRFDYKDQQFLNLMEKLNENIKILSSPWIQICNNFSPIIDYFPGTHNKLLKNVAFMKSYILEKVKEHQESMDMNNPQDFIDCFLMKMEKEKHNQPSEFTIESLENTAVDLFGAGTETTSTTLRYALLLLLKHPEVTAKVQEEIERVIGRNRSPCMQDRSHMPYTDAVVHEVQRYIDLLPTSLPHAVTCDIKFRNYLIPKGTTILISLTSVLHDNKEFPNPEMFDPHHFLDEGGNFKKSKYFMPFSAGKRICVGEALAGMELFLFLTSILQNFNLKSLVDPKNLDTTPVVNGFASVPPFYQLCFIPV

SMILES: COc1ccc(NC(=O)C2CCCN(c3nn4c(=O)cc(C)nc4s3)C2)cc1 (stereo not drawn)
- EC50 [1]: > 112 µM (not active)
- EC50 [2]: > 112 µM (not active)

SMILES: COc1cc2c(cc1OC)-c1cc(Nc3ccccc3)nc(=O)n1CC2
- EC50 [1]: > 112 µM (not active)
- EC50 [2]: 1.63 µM (active)

SMILES: COc1ccc(C(=O)CSc2nnc(-c3ccco3)c(-c3ccco3)n2)cc1
- IC50 [3]: 6.58 µM (active)

SMILES: CCN1C(=O)C(=Cc2ccc(C)s2)C(=O)N(CC)C1=S
- EC50 [4]: 31.9 µM (active)
- EC50 [5]: 9.84 µM (active)

SMILES: COc1cc(C2c3cc4c(cc3[C@@H](Nc3cccc([N+](=O)[O-])c3)C3COC(=O)[C@H]23)OCO4)cc(OC)c1O (stereo partly drawn)
- GI50 (SN12K1): 0.589 µM (active)
- GI50 (P388): < 0.0193 µM (active)
- GI50 (P388/ADR): 0.783 µM (active)

SMILES: COc1ccccc1NC(=O)NC1(C(=O)N2CCCCCC2)CCCCC1
- EC50 [1]: > 112 µM (not active)
- EC50 [2]: > 112 µM (not active)

SMILES: Cc1ccccc1C(=O)Nc1nnc(-c2ccc(F)cc2)o1
- EC50 [4]: 16.6 µM (active)
- EC50 [6]: > 150 µM (inactive)
- EC50 [5]: 18.4 µM (active)
- EC50 [7]: 1.25 µM (active)

SMILES: O=C(Nc1ncc(Cc2ccc(SC(F)F)cc2)s1)c1ccc(OC(F)F)cc1
- IC50 [8]: > 80 µM (inactive)
- AC50 [9]: < 0.16 µM (active)

SMILES: Nc1nc(F)nc2c1ncn2C1OC(COP(=O)(O)O)C(O)C1O (stereo not drawn)
- GI50 (SN12K1): 18.1 µM (inactive)
- GI50 (P388): 3.24 µM (inactive)
- GI50 (P388/ADR): 4.22 µM (inactive)

SMILES: COc1cc(/C=N\NC(=O)c2ccc(Cn3nc([N+](=O)[O-])c(Cl)c3C)o2)ccc1O
- IC50 [10]: 30.5 µM (active)
- IC50 (Large T antigen): 32.7 µM (active)

SMILES: O=C(Nc1nccs1)c1ccc2ccccc2c1
- IC50 (cells): 6.75 µM (active)
- IC50 (Protein skinhead-1): 20.8 µM (active)

SMILES: COc1ccc(NC(=O)NCCCN2CCN(c3cc(C)ccc3C)CC2)cc1
- EC50 [4]: 7.42 µM (active)
- EC50 [5]: 10.2 µM (active)

SMILES: CC1CC(C)CC(C)C(O)/C(C#N)=C/C=C/CC(C2CCCC2C(=O)O)OC(=O)CC(O)C(C)C1 (stereo not drawn)
- GI50 (SN12K1): < 0.0109 µM (active)
- GI50 (P388): < 0.01 µM (active)
- GI50 (P388/ADR): < 0.01 µM (active)

SMILES: CC1CC=CC(O)C1 (stereo not drawn)
- GI50 (SN12K1): > 100 µM (inactive)
- GI50 (P388): 55 µM (inactive)
- GI50 (P388/ADR): > 100 µM (inactive)

SMILES: N#CC(c1ccc(Cl)cc1)c1ccc2c(C(F)(F)F)cc(C(F)(F)F)nc2n1 (stereo not drawn)
- AC50 [11]: 0.487 µM (active)
- EC50 [4]: 0.321 µM (active)
- EC50 [12]: 8.03 µM (active)
- AC50 (INS1): 0.54 µM (active)
- EC50 [5]: 0.349 µM (active)
- AC50 [13]: 1.38 µM (active)
- AC50 [14]: 2.97 µM (active)

SMILES: COc1cc(/C=N/N(C)c2ccccc2)ccc1O
- IC50 [10]: 15.6 µM (active)
- IC50 (Large T antigen): 8.47 µM (active)

SMILES: COCC1N=C(c2cc(OC)c(OC)c(OC)c2-c2cc3c(cc2[C@@H](C)O)OCO3)O[C@H]1c1ccccc1 (stereo partly drawn)
- GI50 (SN12K1): 55.5 µM (inactive)
- GI50 (P388): 64.3 µM (inactive)
- GI50 (P388/ADR): > 100 µM (inactive)

SMILES: Cc1cc(C)c(C2=NO[C@@H]3[C@H]2C(=O)C=C2N(Cc4ccccc4)CCO[C@@]23O)c(C)c1
- GI50 (SN12K1): > 100 µM (inactive)
- GI50 (P388): > 100 µM (inactive)
- GI50 (P388/ADR): > 100 µM (inactive)

SMILES: CN(C)CCNC(=O)c1ccc(Cl)c2ccc(-c3ccccc3)nc12
- GI50 (SN12K1): 2.28 µM (inactive)
- GI50 (P388): 1.13 µM (inactive)
- GI50 (P388/ADR): 1.95 µM (inactive)

SMILES: Cc1cnc([N+](=O)[O-])n1CCOC(=O)NC(=O)c1cccc(F)c1
- EC50 [1]: > 112 µM (not active)
- EC50 [2]: 18.4 µM (active)

SMILES: Cc1ccc(S(=O)(=O)CCC(=O)OCC(=O)NCC(=O)Nc2cccc(C)c2C)cc1
- EC50 [1]: > 112 µM (not active)
- EC50 [2]: > 112 µM (not active)

SMILES: Cc1cc(NC(=O)c2cc([N+](=O)[O-])cc([N+](=O)[O-])c2)no1
- IC50 (cells): 13.3 µM (active)
- EC50 [15]: > 60 µM (not active)
- EC50 [16]: 0.287 µM (active)

SMILES: C[C@@H](CN1CC(=O)NC(=O)C1)N1CC(=O)NC(=O)C1 [DEXRAZOXANE]
- GI50 (SN12K1): 24.2 µM (inactive)
- GI50 (P388): 49.3 µM (inactive)
- GI50 (P388/ADR): 394 µM (inactive)

SMILES: CCN(C(=O)CN1C(=O)NC(c2ccccc2)(c2ccccc2)C1=O)c1ccccc1
- EC50 [1]: > 112 µM (not active)
- EC50 [2]: > 112 µM (not active)

SMILES: Cc1cccc(NC(=O)CSc2cc(C(=O)c3nccn3C)c3ccccc3n2)c1
- EC50 [5]: 453 µM (active)

SMILES: CCNC(=O)c1c(NC(C)=O)sc2c1CCCC2
- EC50 [1]: > 112 µM (not active)
- AC50 (Cytochrome P450 2C9): 17.8 µM (inconclusive)
- EC50 [2]: 15.2 µM (active)

SMILES: N#Cc1c(-c2ccco2)c2c([nH]c1=S)CCCC2
- IC50 (Large T antigen): 37.7 µM (active)

SMILES: O=C(Nc1cccc(S(=O)(=O)N2CCOCC2)c1)c1c2c(nc3ccccc13)CCC2
- IC50 [3]: 5.02 µM (active)

SMILES: Oc1ccc(N=Nc2ccc3c(c2)OCO3)c2ccccc12
- EC50 (BJ [17]): 10.9 µM (active)
- EC50 (BJ [18]): 2.85 µM (active)
- EC50 [19]: 19.4 µM (inconclusive)
- EC50 (BJ [20]): 6.46 µM (inconclusive)

SMILES: CCN(CC)CCOC(=O)Cc1cccc2c(=O)cc(-c3ccccc3)oc12
- GI50 (SN12K1): 24.7 µM (inactive)
- GI50 (P388): 206 µM (inactive)
- GI50 (P388/ADR): 122 µM (inactive)

SMILES: CN(C)c1ccc(/C=N/NC(=O)c2cccc(C(=O)N/N=C/c3ccc(N(C)C)cc3)n2)cc1
- IC50 [3]: 1.15 µM (active)

SMILES: N#C/C(=C\c1ccccc1OCc1ccc(C(=O)O)cc1)C(=O)Nc1ccc(O)cc1
- IC50 (Large T antigen): 11.5 µM (active)

Reference: ChEMBL document CHEMBL1201862, “PubChem BioAssay data set” (2004)
